In the kinase profiling compilation of Christmann-Franck et al. (2016) one finds residual activity data, which are given here for three compounds.

What all share (experiment): radiometric filter-binding kinase assay, Kinaseprofiler
In assay [1] the test system is TEK (human), Q02763 [Q939H/Q940H]. The settings on record: ATP 200 µM.
Assay [2] deals with SGK2 (human), Q9HBY8 [S416D]. As to conditions: ATP 15 µM.
The subject of assay [3] is GSK3A (human), P49840 [S449A]. As to conditions: ATP 10 µM.
The test system of assay [4] is AKT1 (human), P31749 [S478G]. As to conditions: ATP 155 µM.
AKT1 (human), P31749 [S478G], sequence (P31749 whole entry, looked up, stated change not applied): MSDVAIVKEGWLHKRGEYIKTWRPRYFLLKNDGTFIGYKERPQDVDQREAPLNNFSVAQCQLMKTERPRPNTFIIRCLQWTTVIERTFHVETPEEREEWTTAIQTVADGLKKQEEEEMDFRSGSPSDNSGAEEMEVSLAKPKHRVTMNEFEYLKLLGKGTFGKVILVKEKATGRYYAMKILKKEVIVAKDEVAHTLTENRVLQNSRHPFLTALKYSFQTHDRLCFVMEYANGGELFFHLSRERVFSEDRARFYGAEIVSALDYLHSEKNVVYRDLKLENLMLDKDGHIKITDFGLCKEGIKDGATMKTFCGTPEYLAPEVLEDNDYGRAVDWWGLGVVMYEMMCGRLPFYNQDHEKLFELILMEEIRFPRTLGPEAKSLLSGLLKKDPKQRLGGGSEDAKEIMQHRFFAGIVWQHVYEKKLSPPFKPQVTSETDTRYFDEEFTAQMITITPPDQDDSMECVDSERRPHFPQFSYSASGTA
The test system of assay [5] is TAOK3 (human), Q9H2K8 [N47S]. The settings on record: ATP 15 µM.
A further assay addresses CDK2 CCNE1 (human) (UniProt P24941+P24864). As to conditions: ATP 120 µM.
The target in the next assay is CDK3 CCNE1 (human) (UniProt Q00526+P24864). As to conditions: ATP 200 µM.
CDK3 CCNE1 (human), sequence (P24864 whole entry, looked up): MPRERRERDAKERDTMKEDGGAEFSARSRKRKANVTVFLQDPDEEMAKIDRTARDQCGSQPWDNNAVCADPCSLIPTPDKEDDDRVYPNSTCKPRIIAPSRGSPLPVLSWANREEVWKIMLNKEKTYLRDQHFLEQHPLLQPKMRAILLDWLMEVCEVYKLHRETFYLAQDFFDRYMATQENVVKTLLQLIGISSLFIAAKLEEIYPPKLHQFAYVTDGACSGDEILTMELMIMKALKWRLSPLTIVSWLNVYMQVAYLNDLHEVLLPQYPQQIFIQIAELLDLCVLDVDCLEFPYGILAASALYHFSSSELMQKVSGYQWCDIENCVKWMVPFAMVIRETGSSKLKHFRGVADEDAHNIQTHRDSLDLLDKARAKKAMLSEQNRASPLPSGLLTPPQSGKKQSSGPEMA
CDK3 CCNE1 (human), sequence (Q00526 whole entry, looked up): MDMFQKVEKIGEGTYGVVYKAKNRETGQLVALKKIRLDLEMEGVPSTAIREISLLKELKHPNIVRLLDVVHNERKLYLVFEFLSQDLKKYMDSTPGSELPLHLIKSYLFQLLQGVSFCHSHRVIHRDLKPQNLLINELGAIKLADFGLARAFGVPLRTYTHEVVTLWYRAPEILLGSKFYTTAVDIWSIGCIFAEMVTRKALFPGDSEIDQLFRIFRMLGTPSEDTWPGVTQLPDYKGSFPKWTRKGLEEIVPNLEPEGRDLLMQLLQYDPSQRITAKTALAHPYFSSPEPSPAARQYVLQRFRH
Another assay concerns the target CDK2 CCNA2 (human) (UniProt P24941+P20248). As to conditions: ATP 45 µM.
For assay [6], the target named is PRKAA2 PRKAB1 PRKAG1 (human) (UniProt P54619+P54646+Q9Y478). As to conditions: ATP 45 µM.
PRKAA2 PRKAB1 PRKAG1 (human), sequence (P54619 whole entry, looked up): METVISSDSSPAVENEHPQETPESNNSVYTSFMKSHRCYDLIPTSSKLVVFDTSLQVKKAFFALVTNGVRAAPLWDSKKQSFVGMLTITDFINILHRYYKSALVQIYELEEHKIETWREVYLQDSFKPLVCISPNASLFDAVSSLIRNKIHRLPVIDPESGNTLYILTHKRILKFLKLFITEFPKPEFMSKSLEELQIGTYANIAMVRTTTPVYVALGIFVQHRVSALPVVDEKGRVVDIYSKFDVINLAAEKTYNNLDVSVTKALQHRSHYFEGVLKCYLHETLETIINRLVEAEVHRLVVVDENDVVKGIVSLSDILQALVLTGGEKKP
PRKAA2 PRKAB1 PRKAG1 (human), sequence (P54646 whole entry, looked up): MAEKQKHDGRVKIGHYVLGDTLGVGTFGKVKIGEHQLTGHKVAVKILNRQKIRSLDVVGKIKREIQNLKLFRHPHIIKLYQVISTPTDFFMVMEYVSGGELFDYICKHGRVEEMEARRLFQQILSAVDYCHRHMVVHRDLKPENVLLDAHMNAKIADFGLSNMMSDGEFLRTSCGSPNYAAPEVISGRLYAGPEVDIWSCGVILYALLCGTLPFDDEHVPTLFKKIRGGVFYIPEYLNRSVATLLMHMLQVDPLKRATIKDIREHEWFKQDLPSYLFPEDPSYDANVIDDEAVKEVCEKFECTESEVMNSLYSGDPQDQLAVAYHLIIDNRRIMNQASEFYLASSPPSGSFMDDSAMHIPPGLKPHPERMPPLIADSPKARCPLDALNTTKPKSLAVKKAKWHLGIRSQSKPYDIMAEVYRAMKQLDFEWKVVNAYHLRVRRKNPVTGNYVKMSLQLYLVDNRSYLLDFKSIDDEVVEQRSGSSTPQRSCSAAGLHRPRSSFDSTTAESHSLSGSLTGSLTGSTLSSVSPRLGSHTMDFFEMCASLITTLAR
PRKAA2 PRKAB1 PRKAG1 (human), sequence (Q9Y478 whole entry, looked up): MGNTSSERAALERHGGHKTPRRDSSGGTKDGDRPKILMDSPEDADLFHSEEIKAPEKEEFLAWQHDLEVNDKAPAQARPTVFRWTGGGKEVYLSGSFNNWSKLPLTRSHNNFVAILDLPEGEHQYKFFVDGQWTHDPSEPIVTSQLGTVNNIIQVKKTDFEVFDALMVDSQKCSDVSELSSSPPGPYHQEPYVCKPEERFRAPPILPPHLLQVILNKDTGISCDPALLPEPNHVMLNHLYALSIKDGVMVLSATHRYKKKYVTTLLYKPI
The target in a further assay is CDK7 CCNH MNAT1 (human) (UniProt P50613+P51948+P51946). The settings on record: ATP 90 µM.
The target in a further assay is MTOR FKBP1A (human) (UniProt P42345+P62942). The settings on record: ATP 45 µM.
MTOR FKBP1A (human), sequence (P62942 whole entry, looked up, other chains not shown): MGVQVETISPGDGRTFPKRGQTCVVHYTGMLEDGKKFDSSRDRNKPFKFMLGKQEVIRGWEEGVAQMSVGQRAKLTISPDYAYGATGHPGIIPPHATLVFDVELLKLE

TEK (human), Q02763 [Q939H/Q940H], sequence (Q02763 whole entry Q939H/Q940H, looked up): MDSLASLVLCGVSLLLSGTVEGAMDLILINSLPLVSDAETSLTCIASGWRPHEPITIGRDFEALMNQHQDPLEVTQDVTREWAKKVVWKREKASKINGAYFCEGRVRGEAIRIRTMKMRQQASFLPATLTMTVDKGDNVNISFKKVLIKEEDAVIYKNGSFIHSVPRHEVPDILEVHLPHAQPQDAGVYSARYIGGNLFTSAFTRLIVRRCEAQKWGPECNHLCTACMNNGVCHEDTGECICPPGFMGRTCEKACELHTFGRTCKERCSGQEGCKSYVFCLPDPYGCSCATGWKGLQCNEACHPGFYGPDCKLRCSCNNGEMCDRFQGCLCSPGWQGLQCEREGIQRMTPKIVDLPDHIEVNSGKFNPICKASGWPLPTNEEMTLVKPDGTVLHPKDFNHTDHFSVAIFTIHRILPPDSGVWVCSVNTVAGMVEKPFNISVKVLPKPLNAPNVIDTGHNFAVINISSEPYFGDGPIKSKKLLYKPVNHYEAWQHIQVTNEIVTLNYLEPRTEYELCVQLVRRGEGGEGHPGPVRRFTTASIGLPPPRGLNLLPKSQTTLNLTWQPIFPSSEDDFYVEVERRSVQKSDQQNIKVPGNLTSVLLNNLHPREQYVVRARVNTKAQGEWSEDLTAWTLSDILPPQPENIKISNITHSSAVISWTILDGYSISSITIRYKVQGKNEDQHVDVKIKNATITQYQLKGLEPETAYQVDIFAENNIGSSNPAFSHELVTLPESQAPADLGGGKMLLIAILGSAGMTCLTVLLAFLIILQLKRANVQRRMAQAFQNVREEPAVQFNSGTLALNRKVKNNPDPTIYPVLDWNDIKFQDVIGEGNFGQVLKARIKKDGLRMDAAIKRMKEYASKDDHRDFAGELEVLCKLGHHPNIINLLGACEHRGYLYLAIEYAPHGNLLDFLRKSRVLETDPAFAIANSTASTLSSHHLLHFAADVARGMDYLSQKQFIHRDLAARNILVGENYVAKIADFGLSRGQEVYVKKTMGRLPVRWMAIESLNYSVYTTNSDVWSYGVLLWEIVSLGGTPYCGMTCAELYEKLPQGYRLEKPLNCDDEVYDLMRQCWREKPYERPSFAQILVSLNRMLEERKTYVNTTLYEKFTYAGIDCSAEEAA
CDK2 CCNE1 (human), sequence (P24864 whole entry, looked up, other chains not shown): as the sequence (P24864 whole entry, looked up) above
CDK2 CCNA2 (human), sequence (P20248 whole entry, looked up, other chains not shown): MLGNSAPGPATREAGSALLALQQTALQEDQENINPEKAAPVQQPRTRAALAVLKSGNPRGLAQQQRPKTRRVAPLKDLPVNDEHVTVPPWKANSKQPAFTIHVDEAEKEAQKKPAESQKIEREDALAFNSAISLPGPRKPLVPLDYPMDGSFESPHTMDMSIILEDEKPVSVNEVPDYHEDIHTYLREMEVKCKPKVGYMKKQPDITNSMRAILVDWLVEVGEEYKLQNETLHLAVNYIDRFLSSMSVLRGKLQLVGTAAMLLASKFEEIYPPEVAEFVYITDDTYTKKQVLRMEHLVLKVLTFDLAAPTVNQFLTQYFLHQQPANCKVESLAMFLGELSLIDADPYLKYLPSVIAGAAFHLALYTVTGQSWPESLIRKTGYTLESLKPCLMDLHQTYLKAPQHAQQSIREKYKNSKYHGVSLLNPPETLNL
SGK2 (human), Q9HBY8 [S416D], sequence (Q9HBY8 whole entry, looked up, stated change not applied): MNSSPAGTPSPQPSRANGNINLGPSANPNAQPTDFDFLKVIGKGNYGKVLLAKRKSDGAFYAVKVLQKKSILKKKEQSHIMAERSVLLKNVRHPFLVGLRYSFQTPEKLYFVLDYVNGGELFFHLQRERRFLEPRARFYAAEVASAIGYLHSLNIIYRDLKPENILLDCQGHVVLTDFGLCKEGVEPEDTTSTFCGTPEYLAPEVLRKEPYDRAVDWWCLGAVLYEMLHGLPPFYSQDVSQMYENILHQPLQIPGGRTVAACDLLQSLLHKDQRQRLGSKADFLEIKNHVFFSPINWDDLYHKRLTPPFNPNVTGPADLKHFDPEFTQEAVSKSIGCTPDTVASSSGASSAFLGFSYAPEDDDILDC

`O=C1Nc2ccccc2/C1=C1\Nc2ccccc2\C1=N/O`: the residual activity – broadly, the signal under treatment as a percentage of the control signal – in [1] (compound 1.0 µM) is 103%; in assay [1] (compound 10.0 µM), 41%; in assay [2] (compound 1.0 µM) it was 61%; in [2] (compound 10.0 µM), 24%; in assay [3] (compound 1.0 µM) it was 5%; in [3] (compound 10.0 µM) it was 1%. Besides, the residual activity in assay [4] (compound 1.0 µM) was found to be 107%; in assay [4] (compound 10.0 µM), 98%; in [5] (compound 1.0 µM), 85%; in [5] (compound 10.0 µM) it was 28%.
For `O=C(Nc1cccc(Nc2nccc(Nc3cccc(C(F)(F)F)c3)n2)c1)C1CC1`, in assay [1] (compound 10.0 µM), the residual activity was determined as 17%.
In the case of `CO[C@H]1CC2CC[C@@H](C)[C@@](O)(O2)C(=O)C(=O)N2CCCC[C@H]2C(=O)OC([C@H](C)C[C@@H]2CC[C@@H](O)[C@H](OC)C2)CC(=O)[C@H](C)/C=C(\C)[C@@H](O)[C@@H](OC)C(=O)[C@H](C)C[C@H](C)/C=C/C=C/C=C/1C` (stereo partly drawn), the residual activity stood at 105% at CDK2 CCNE1 (human) (compound 1.0 µM); 96% on CDK2 CCNE1 (human) (compound 10.0 µM); 90% at CDK3 CCNE1 (human) (compound 1.0 µM); 86% at CDK3 CCNE1 (human) (compound 10.0 µM); 129% at CDK2 CCNA2 (human) (compound 1.0 µM); 113% at CDK2 CCNA2 (human) (compound 10.0 µM). The residual activity in [6] (compound 1.0 µM) was 93%; in assay [6] (compound 10.0 µM), 107%; at CDK7 CCNH MNAT1 (human) (compound 1.0 µM), 88%; on CDK7 CCNH MNAT1 (human) (compound 10.0 µM), 94%; at MTOR FKBP1A (human) (compound 1.0 µM), -17%; on MTOR FKBP1A (human) (compound 10.0 µM), 4%.
